Assays:
[1] = Active oxygen method (AOM), soybean oil; settings: soybean oil subjected to oxidative stress, 500 ppm antioxidant, FIG. 1
[2] = Oil stability index (OSI) method, soybean oil; settings: 500 ppm antioxidant, FIG. 1

SMILES: CCOc1ccc2c(c1)C(C)=CC(C)(C)N2 [ETX, 6-ethoxy-1,2-dihydro-2,2,4-trimethylquinoline]
- peroxide values [1]: about 11 meq
- OSI induction time [2]: about 6 hr

From US20080015217A1, “ANTIOXIDANT COMBINATIONS FOR USE IN RUMINANT FEED RATIONS” (NOVUS INTERNATIONAL, INC., priority 2006, published 2008)
